Nine compounds from US20240287037A1, “CYCLOALKYL COMPOUNDS AND PHARMACEUTICAL COMPOSITIONS THAT MODULATE IKZF2” (Plexium, Inc., priority 2021, published 2024) can be followed below.

What all share (format): cell-based
One assay addresses IKZF2 (Helios) (Homo sapiens (Human), UniProt Q96SW2+Q9UKS7). Kind of assay: IKZF2 reporter degradation assay (HEK 293T IKZF2-mNeonGreen reporter cell line). Conditions: 24 hour incubation; for inhibition at 1 µM: HEK-293T, 24 h. The source says:
(§1) Polycistronic plasmids were constructed for the mammalian expression of fluorescent reporter fusions of human transcription factors IKZF1 (Ikaros), IKZF2 (Helios), and IKZF3 (Aiolos). The respective protein sequences had their C-terminal end joined to a GGGGS linker repeated three times followed by mNeonGreen, P2A sequence, and mScarlet. The DNA sequences of the open reading frames are as follows:
(§2) IKZF1, IKZF2, and IKZF3 constructs were cloned into the UCOE Hygromycin expression vectors (Millipore Sigma). Reporter constructs were transfected using cationic lipid reagents into adherent HEK 293T cells and stable integrants were selected by treatment with 200 μg/mL hygromycin B. Clonal populations were obtained from the population of stable integrants either by limiting dilution or fluorescence activated cell sorting.
(§3) The clonal stable cell lines were maintained under constant 200 μg/mL hygromycin B selection while being passaged for use in the degradation assays. […] The fluorescence intensity of the IKZF1/2/3-mNeonGreen (FITC channel) and mScarlet (PE channel) reporters were routinely analyzed by flow cytometry to confirm consistent expression levels between experiments.
(§4) The IKZF1/IKZF2/IKZF3 degradation assays were carried out by harvesting the HEK 293T reporter cell lines and resuspending the cells in media formulated for reduced background fluorescence (FluoroBrite; Thermo Fisher). The respective cell lines were seeded at a density of 4000 cells/well into black-walled 384-well optical grade assay tissue culture plates. The cells were incubated overnight at 37° C. to allow for attachment to the assay plate. Dilutions of the compounds were prepared in DMSO from 10 mM compound stocks. The assay plates were treated with appropriate concentrations of the compounds by dispensing the DMSO dilutions in quadruplicate wells with an upper limit of 0.5% final DMSO.
(§5) After 24 hour incubation with the compounds, the assay plates were imaged on an ImageXpress Pico microscopy system (cells maintained at 37° C. during imaging) to obtain the fluorescent readouts. The assay plates were imaged in the FITC and Tetramethylrhodamine (TRITC) channels to obtain the mNeonGreen fluorescence intensity (reporter degradation data) and mScarlet fluorescence intensity (for cell segmentation). 293T-IKZF1 and 293T-IKZF3 reporter cell lines were imaged with exposures of 500 milliseconds (ms) for both FITC and TRITC channels, while the 293T-IKZF2 reporter cell line was imaged with exposures of 1000 ms for FITC and 1250 ms for TRITC. The resulting data was analyzed with Cell Reporter Xpress software using the 2-channel cell scoring analysis with a “percent positive” readout. The TRITC channel was selected for the “nuclei” segmentation with a threshold of 20 while the FITC channel was selected for the “Marker 1” segmentation and a threshold of 100 for the IKZF and IKZF3 reporter lines. […] The minimum segmentation width was set to 6 micrometers and the maximum segmentation width was set to 15 micrometers for all cell lines. The DC50 calculations were determined by regression to best fit four-parameter logistic curves using GraphPad Prism.

The target of the next assay is IKZF3 (Aiolos) (Homo sapiens (Human), UniProt Q96SW2+Q9UKT9). Kind of assay: IKZF3 reporter degradation assay (HEK 293T IKZF3-mNeonGreen reporter cell line). Conditions: HEK 293T reporter cells, 24 hour incubation.
From the text: as §1, §2, §3, §4, §5

The target in another assay is IKZF1 (Ikaros) (Homo sapiens (Human), UniProt Q13422+Q96SW2). Nature of the assay: IKZF1 reporter degradation assay (HEK 293T IKZF1-mNeonGreen reporter cell line). Conditions: HEK 293T reporter cells, 24 hour incubation.
From the text: as §1, §2, §3, §4, §5

[1] abbreviates: Table 3, HEK 293T reporter cells.
Setting [2] is: second (untitled) table after Table 3.

IKZF2 (Helios), sequence (Q9UKS7 whole entry, the tested form may be a part): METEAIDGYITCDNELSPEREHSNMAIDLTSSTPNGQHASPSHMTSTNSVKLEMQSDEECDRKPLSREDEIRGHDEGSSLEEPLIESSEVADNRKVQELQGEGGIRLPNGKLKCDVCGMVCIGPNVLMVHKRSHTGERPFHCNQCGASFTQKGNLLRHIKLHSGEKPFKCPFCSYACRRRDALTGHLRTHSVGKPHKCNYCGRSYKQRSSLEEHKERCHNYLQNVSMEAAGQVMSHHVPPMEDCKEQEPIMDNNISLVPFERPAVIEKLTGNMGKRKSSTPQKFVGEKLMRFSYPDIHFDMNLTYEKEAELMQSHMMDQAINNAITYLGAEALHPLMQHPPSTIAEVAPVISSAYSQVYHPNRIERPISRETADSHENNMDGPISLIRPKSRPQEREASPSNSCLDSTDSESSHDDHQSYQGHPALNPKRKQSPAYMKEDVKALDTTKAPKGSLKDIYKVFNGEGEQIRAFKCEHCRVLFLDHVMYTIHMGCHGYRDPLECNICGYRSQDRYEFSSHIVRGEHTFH
IKZF2 (Helios), sequence (Q96SW2 whole entry, the tested form may be a part): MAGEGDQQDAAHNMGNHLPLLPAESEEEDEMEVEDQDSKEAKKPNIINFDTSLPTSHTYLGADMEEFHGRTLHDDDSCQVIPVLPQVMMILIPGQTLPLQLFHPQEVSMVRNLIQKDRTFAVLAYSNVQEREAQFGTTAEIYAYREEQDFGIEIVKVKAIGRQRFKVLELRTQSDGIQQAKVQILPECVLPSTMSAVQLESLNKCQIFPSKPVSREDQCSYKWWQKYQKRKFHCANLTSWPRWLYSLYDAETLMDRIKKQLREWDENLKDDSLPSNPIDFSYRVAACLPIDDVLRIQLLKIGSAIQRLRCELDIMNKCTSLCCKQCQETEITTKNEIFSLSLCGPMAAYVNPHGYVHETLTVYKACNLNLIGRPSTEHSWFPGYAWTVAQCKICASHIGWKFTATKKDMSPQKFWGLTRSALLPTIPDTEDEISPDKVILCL
IKZF2 (Helios), sequence (Q16531 whole entry partner, the tested form may be a part): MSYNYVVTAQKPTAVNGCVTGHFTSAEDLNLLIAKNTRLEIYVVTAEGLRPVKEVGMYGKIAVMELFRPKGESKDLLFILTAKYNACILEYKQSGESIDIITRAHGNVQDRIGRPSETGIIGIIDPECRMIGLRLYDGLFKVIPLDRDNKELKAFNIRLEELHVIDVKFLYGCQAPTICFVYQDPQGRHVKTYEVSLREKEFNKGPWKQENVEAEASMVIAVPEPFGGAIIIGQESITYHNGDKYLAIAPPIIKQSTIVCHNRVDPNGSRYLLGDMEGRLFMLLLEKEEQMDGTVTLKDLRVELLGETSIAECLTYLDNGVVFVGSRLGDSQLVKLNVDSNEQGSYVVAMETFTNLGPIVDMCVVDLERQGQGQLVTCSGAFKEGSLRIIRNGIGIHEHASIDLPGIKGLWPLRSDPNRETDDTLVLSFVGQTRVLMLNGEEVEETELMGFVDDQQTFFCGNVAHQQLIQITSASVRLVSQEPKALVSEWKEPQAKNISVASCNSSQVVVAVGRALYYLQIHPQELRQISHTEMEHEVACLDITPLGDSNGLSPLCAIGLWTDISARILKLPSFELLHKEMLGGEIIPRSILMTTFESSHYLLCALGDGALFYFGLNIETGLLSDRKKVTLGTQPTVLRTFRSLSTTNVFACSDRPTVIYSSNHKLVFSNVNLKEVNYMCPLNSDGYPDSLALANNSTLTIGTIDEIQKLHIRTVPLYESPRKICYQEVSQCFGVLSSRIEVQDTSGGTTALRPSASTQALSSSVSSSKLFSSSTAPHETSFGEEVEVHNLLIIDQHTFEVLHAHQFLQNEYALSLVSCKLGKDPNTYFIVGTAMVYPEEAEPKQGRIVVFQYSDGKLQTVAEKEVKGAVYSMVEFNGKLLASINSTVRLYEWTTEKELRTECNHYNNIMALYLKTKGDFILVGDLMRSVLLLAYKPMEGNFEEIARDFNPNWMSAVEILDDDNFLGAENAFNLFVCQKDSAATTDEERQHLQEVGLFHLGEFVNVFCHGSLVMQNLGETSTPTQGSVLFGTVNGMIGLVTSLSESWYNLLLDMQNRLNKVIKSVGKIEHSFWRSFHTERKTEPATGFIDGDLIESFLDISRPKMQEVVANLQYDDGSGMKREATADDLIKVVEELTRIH
IKZF1 (Ikaros), sequence (Q13422 whole entry): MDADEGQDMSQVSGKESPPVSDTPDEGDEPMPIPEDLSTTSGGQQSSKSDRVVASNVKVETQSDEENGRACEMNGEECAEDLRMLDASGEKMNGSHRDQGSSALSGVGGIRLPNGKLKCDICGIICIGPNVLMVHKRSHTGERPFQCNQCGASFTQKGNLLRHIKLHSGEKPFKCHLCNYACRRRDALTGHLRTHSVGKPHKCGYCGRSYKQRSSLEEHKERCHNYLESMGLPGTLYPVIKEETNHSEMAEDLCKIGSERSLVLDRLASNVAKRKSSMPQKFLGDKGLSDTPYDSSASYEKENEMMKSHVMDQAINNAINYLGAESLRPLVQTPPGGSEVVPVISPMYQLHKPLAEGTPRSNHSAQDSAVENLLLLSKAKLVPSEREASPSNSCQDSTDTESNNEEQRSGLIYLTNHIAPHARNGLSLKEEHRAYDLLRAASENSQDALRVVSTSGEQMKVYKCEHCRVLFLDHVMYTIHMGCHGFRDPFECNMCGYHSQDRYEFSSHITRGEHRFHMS
IKZF1 (Ikaros), sequence (Q96SW2 whole entry): as the sequence (Q96SW2 whole entry, the tested form may be a part) above
IKZF1 (Ikaros), sequence (Q16531 whole entry partner): as the sequence (Q16531 whole entry partner, the tested form may be a part) above
IKZF3 (Aiolos), sequence (Q9UKT9 whole entry): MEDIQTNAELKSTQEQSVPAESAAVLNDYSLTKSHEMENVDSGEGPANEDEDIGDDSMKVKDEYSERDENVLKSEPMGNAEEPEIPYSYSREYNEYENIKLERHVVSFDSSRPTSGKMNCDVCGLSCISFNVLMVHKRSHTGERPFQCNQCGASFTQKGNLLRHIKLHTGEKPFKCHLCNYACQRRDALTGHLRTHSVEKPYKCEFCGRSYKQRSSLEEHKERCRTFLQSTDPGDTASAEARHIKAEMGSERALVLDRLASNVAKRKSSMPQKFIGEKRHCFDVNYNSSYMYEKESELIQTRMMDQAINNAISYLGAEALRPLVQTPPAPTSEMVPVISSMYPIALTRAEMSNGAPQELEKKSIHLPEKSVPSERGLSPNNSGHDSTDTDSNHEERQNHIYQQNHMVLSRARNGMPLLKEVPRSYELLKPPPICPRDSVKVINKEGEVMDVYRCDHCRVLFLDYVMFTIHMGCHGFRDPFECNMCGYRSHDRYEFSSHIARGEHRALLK
IKZF3 (Aiolos), sequence (Q96SW2 whole entry): as the sequence (Q96SW2 whole entry, the tested form may be a part) above
IKZF3 (Aiolos), sequence (Q16531 whole entry partner): as the sequence (Q16531 whole entry partner, the tested form may be a part) above

The DC50 is the midpoint of the concentration-degradation curve. One may read the inhibition as the share of the control response that was lost under treatment. Take `O=C1CCC(N2Cc3cc(O[C@H]4CCCC[C@@H]4N4CC(C5CC(F)(F)C5)C4)ccc3C2=O)C(=O)N1` (stereo partly drawn) [Compound 18, 3-(5-(((1S,2S)-2-(3-(3,3-difluorocyclobutyl)azetidin-1-yl)cyclohexyl)oxy)-1-oxoisoindolin-2-yl)piperidine-2,6-dione]: the DC50 on IKZF2 (Helios) (HEK 293T reporter cells) is 29 nM; at IKZF3 (Aiolos), above 30000 nM; on IKZF1 (Ikaros) it was above 30000 nM. For the same compound, the inhibition at 1 µM at IKZF2 (Helios) (setting [1]) amounted to 71.1%; on IKZF2 (Helios) (setting [2]), 95.8%.

Take `CCOC1CCC(C2CN([C@H]3CCCC[C@@H]3Oc3ccc4c(c3)CN(C3CCC(=O)NC3=O)C4=O)C2)CC1` (stereo partly drawn) [Compound 19, 3-(5-(((1S,2S)-2-(3-(4-ethoxycyclohexyl)azetidin-1-yl)cyclohexyl)oxy)-1-oxoisoindolin-2-yl)piperidine-2,6-dione]: the values for the 50% degradation concentration (DC50) on IKZF2 (Helios) (HEK 293T reporter cells), at IKZF3 (Aiolos) and at IKZF1 (Ikaros) were 2 nM, above 30000 nM and above 30000 nM, respectively. Further, the inhibition at 1 µM at IKZF2 (Helios) (setting [1]) and at IKZF2 (Helios) (setting [2]) was 72.8% throughout.

Turning to `O=C1CCC(N2Cc3cc(O[C@H]4CCCC[C@@H]4N4CC(C5CCCC(F)(F)C5)C4)ccc3C2=O)C(=O)N1` (stereo partly drawn) [Compound 20, 3-(5-(((1S,2S)-2-(3-(3,3-difluorocyclohexyl)azetidin-1-yl)cyclohexyl)oxy)-1-oxoisoindolin-2-yl)piperidine-2,6-dione], the 50% degradation concentration (DC50) on IKZF2 (Helios) (HEK 293T reporter cells) was 3 nM; at IKZF3 (Aiolos) it was above 30000 nM; at IKZF1 (Ikaros) it was above 30000 nM. Further, the inhibition at 1 µM against IKZF2 (Helios) (setting [1]) and at IKZF2 (Helios) (setting [2]) was 85% each time.

For the compound `O=C1CCC(N2Cc3cc(O[C@H]4CCCC[C@@H]4N4CC(C5CCC(OC(F)F)CC5)C4)ccc3C2=O)C(=O)N1` (stereo partly drawn) [Compound 21, 3-(5-(((1S,2S)-2-(3-(4-(difluoromethoxy)cyclohexyl)azetidin-1-yl)cyclohexyl)oxy)-1-oxoisoindolin-2-yl)piperidine-2,6-dione], the DC50 on IKZF2 (Helios) (HEK 293T reporter cells) was 2 nM; at IKZF3 (Aiolos) it was 6 nM; on IKZF1 (Ikaros) it was above 30000 nM. In addition, the inhibition at 1 µM against IKZF2 (Helios) (setting [1]) and against IKZF2 (Helios) (setting [2]) was 86.7% throughout. Also, the “IKZF3% Degradation @ 1 μM” value on IKZF3 (Aiolos) (1 μM) was found to be 32.4%.

On to `O=C1CCC(N2Cc3cc(O[C@H]4CCC[C@@H]4N4CC(C5CC5)C4)ccc3C2=O)C(=O)N1` (stereo partly drawn) [Compound 22, 3-(5-(((1S,2S)-2-(3-cyclopropylazetidin-1-yl)cyclopentyl)oxy)-1-oxoisoindolin-2-yl)piperidine-2,6-dione], for which the 50% degradation concentration (DC50) on IKZF2 (Helios) (HEK 293T reporter cells) was 9 nM; at IKZF3 (Aiolos), above 30000 nM; on IKZF1 (Ikaros), above 30000 nM. The inhibition at 1 µM on IKZF2 (Helios) (setting [1]) and on IKZF2 (Helios) (setting [2]) was 82.6% each time.

As to `O=C1CCC(N2Cc3c(ccc(O[C@H]4CCCC[C@@H]4N4CC(C5CC5)C4)c3F)C2=O)C(=O)N1` (stereo partly drawn) [Compound 24, 3-(5-(((1S,2S)-2-(3-cyclopropylazetidin-1-yl)cyclohexyl)oxy)-4-fluoro-1-oxoisoindolin-2-yl)piperidine-2,6-dione], the DC50 is 18 nM at IKZF2 (Helios) (HEK 293T reporter cells), above 30000 nM at IKZF3 (Aiolos) and above 30000 nM at IKZF1 (Ikaros). The inhibition at 1 µM on IKZF2 (Helios) (setting [1]) and on IKZF2 (Helios) (setting [2]) was 85.8% throughout.

On to `O=C1CCC(N2Cc3c(ccc(O[C@H]4CCCC[C@@H]4N4CC(C5CCC5)C4)c3F)C2=O)C(=O)N1` (stereo partly drawn) [Compound 25, 3-(5-(((1S,2S)-2-(3-cyclobutylazetidin-1-yl)cyclohexyl)oxy)-4-fluoro-1-oxoisoindolin-2-yl)piperidine-2,6-dione], for which the results for the DC50 on IKZF2 (Helios) (HEK 293T reporter cells), at IKZF3 (Aiolos) and on IKZF1 (Ikaros) were 10 nM, above 30000 nM and above 30000 nM, respectively. The inhibition at 1 µM against IKZF2 (Helios) (setting [1]) and against IKZF2 (Helios) (setting [2]) was 86.7% throughout.

For `O=C1CCC(N2Cc3cc(O[C@H]4CCCC[C@@H]4N4CC(C5CC5)C4)c(F)cc3C2=O)C(=O)N1` (stereo partly drawn) [Compound 26, 3-(5-(((1S,2S)-2-(3-cyclopropylazetidin-1-yl)cyclohexyl)oxy)-6-fluoro-1-oxoisoindolin-2-yl)piperidine-2,6-dione], the half-maximal degradation concentration (DC50) at IKZF2 (Helios) (HEK 293T reporter cells) is 25 nM; at IKZF3 (Aiolos) it was above 30000 nM; at IKZF1 (Ikaros) it was above 30000 nM. In addition, the inhibition at 1 µM on IKZF2 (Helios) (setting [1]) and against IKZF2 (Helios) (setting [2]) was 77.8% throughout.

Consider `O=C1CCC(N2Cc3cc(O[C@H]4CCCC[C@@H]4N4CC(C5CCC5)C4)c(F)cc3C2=O)C(=O)N1` (stereo partly drawn) [Compound 27, 3-(5-(((1S,2S)-2-(3-cyclobutylazetidin-1-yl)cyclohexyl)oxy)-6-fluoro-1-oxoisoindolin-2-yl)piperidine-2,6-dione], for which the 50% degradation concentration (DC50) at IKZF2 (Helios) (HEK 293T reporter cells) was 20 nM; on IKZF3 (Aiolos) it was above 30000 nM; at IKZF1 (Ikaros), above 30000 nM. The inhibition at 1 µM against IKZF2 (Helios) (setting [1]) and at IKZF2 (Helios) (setting [2]) was 84.1% in each case.
